Here are results for 4 compounds from paper PMC8550792, “Evolution of kinase polypharmacology across HSP90 drug discovery” (Cell Chemical Biology, 2021).

Common to all, as to test: biochemical
Assay type in all cases: biochemical

In assay [1] the target is T1, 382 unique human kinases (Homo sapiens, UniProt Q9Y4K4).
T1 construct: purchased Reaction Biology (HotSpot contract assay)
To be noted: kinase KHS/MAP4K5, compound 10 uM; for remaining activity at 10 µM: read-out: % Enzyme Activity (relative to DMSO controls).

Assay [2] addresses T2, 382 unique human kinases (Homo sapiens, UniProt Q8WXR4).
T2 construct: purchased Reaction Biology (HotSpot contract assay)
T2 sequence (Q8WXR4 1-1341): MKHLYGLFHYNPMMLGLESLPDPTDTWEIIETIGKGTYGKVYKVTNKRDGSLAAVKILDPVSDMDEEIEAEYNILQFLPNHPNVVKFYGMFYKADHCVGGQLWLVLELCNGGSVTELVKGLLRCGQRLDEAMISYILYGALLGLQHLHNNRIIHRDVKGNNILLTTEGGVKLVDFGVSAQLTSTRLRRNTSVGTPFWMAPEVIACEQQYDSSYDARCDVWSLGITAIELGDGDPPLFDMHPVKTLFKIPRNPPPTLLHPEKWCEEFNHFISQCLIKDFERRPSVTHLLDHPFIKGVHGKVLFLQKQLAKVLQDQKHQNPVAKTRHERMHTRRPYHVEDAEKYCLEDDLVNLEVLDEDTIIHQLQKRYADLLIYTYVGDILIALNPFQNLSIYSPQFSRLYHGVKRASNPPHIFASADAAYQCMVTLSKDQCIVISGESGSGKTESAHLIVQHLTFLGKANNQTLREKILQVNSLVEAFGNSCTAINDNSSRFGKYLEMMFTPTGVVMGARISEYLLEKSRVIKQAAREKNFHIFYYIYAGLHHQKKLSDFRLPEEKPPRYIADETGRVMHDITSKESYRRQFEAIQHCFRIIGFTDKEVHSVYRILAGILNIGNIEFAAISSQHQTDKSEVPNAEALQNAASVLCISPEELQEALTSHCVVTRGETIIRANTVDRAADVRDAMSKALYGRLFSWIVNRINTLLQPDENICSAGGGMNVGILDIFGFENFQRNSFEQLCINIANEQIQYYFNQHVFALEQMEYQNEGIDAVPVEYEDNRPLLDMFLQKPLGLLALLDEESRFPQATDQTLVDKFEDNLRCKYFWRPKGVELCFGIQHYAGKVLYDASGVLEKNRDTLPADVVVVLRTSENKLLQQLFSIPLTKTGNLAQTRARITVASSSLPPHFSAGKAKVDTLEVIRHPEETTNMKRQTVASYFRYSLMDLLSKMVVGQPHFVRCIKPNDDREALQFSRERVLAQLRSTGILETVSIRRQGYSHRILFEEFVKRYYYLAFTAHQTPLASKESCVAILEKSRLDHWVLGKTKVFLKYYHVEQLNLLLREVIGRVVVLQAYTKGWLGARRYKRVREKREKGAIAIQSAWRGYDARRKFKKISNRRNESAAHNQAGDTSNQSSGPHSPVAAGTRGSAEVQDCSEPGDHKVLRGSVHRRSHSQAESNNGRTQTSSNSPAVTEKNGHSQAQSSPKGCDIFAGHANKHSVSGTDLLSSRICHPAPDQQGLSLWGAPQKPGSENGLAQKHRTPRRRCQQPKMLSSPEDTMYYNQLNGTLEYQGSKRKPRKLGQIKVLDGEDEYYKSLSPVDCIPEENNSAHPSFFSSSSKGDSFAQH
Particulars: kinase MYO3b, compound 10 uM; for remaining activity at 10 µM: read-out: % Enzyme Activity (relative to DMSO controls).

The target in assay [3] is T3, 382 unique human kinases (Homo sapiens, UniProt P68400).
T3 construct: purchased Reaction Biology (HotSpot contract assay)
Particulars: CK2a, 10 uM; for remaining activity at 10 µM: read-out: % Enzyme Activity (relative to DMSO controls).

The target in assay [4] is T4, 382 unique human kinases (Homo sapiens, UniProt P15056).
T4 construct: purchased Reaction Biology (HotSpot contract assay)
To be noted: BRAF, 10 uM; for remaining activity at 10 µM: read-out: % Enzyme Activity (relative to DMSO controls).

Assay [5] has as its target T5, 382 unique human kinases (Homo sapiens, UniProt P51955).
T5 construct: purchased Reaction Biology (HotSpot contract assay)
T5 sequence (P51955 1-445): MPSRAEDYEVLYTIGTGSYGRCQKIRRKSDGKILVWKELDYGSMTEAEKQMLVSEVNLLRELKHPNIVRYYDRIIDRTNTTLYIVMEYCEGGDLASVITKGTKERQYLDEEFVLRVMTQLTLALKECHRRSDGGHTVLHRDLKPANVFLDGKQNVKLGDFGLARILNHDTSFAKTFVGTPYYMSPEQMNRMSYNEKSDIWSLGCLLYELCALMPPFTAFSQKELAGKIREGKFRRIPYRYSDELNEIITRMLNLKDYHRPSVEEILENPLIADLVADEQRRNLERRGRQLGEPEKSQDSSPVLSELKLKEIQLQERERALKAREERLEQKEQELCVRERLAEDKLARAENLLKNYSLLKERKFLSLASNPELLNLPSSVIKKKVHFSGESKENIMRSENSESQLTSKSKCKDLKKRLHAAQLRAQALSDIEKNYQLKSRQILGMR
Particulars: NEK2, [ATP] 10 µM, compound 10 uM; for remaining activity at 10 µM: read-out: % Enzyme Activity (relative to DMSO controls).

T4 sequence (P15056 whole entry): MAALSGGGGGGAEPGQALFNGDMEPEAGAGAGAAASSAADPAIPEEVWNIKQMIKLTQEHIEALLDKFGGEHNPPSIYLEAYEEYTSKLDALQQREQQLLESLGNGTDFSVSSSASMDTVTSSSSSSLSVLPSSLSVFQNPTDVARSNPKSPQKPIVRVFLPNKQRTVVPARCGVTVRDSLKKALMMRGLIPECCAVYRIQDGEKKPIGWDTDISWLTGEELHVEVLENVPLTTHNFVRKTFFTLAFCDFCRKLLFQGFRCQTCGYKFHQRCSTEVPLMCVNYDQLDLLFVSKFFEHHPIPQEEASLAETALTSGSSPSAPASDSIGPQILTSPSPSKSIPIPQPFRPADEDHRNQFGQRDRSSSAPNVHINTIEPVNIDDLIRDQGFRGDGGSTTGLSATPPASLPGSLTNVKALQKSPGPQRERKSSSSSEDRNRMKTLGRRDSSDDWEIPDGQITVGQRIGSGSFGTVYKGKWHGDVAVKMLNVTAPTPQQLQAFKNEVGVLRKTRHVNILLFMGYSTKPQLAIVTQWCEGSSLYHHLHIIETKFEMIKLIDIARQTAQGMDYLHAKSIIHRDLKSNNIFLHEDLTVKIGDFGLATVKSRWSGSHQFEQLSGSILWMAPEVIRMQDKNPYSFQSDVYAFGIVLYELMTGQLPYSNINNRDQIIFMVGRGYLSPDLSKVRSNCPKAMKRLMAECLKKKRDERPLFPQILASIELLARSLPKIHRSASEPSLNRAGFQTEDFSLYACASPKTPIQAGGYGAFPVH
T1 sequence (Q9Y4K4 whole entry): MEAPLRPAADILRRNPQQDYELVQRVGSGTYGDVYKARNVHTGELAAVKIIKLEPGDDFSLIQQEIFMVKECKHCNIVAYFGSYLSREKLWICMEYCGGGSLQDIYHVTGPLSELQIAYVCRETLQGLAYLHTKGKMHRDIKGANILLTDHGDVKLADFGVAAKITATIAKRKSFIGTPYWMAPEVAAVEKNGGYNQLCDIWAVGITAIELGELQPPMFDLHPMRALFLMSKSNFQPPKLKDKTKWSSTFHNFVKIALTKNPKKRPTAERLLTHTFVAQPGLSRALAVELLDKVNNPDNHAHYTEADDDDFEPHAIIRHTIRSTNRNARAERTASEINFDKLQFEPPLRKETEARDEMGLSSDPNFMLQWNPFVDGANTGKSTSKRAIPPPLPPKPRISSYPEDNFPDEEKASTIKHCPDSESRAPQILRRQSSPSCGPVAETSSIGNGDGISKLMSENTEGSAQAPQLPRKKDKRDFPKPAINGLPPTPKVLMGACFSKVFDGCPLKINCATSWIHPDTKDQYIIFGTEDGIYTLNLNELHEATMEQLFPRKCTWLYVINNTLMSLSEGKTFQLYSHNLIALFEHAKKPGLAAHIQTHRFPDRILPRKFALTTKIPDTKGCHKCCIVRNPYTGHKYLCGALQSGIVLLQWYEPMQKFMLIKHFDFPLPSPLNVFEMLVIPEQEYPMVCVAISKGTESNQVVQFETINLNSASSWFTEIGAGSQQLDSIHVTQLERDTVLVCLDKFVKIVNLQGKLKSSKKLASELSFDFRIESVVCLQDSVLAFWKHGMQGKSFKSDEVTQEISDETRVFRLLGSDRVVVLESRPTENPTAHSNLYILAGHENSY
T3 sequence (P68400 whole entry): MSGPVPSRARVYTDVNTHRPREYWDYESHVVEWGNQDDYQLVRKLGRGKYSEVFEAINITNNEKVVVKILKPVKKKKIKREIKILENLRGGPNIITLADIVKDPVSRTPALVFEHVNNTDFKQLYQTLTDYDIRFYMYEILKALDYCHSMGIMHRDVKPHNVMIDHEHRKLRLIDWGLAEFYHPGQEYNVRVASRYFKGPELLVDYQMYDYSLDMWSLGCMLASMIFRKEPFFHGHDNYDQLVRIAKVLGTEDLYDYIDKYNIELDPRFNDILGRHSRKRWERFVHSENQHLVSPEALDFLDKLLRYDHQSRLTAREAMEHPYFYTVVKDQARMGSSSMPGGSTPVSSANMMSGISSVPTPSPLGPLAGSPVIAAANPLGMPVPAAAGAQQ

For the compound `CC(C)c1cc(-c2n[nH]c(=O)n2-c2ccc3c(ccn3C)c2)c(O)cc1O` [Ganetespib (STA9090)], the remaining activity at 10 µM at 382 unique human kinases [1] turned out to be 80.6%; on 382 unique human kinases [2] it was 88.2%.
For `CC(C)c1cc(-c2n[nH]c(=O)n2-c2ccc3c(ccn3C)c2)c(O)cc1O` [Ganetespib], the remaining activity at 10 µM at 382 unique human kinases [3] turned out to be 101%; on 382 unique human kinases [4], 98.1%; on 382 unique human kinases [5], 51.6%.
Turning to `CCNC(=O)c1noc(-c2cc(C(C)C)c(O)cc2O)c1-c1ccc(CN2CCOCC2)cc1` [Luminespib (AUY-922)], at 382 unique human kinases [1], the “% Enzyme Activity (relative to DMSO controls)” value is listed as 91.62% and the remaining activity at 10 µM stood at 93.5%. Moreover, on 382 unique human kinases [2], the “% Enzyme Activity (relative to DMSO controls)” value is given as 111.45% and the remaining activity at 10 µM amounted to 113%.
Take `CCNC(=O)c1noc(-c2cc(C(C)C)c(O)cc2O)c1-c1ccc(CN2CCOCC2)cc1` [Luminespib]: the results for the “% Enzyme Activity (relative to DMSO controls)” value on 382 unique human kinases [3], at 382 unique human kinases [4] and on 382 unique human kinases [5] were 112.96%, 103.97% and 101.57%, respectively. Moreover, the remaining activity at 10 µM stood at 117% on 382 unique human kinases [3], 105% at 382 unique human kinases [4] and 103% at 382 unique human kinases [5].
